Test results from publication PMC10452110, “Indole-3-Acetamido-Polyamines as Antimicrobial Agents and Antibiotic Adjuvants” (Biomolecules, 2023).
In brackets after ≈: the same amount, converted by molar mass. Read-outs that look alike come from different tables or passages of the source. Marks after values point to notes of the source that are not given here.

Legend:
[1] = tested on: HEK293 (human embryonic kidney) cells; design: method as in Cadelis et al. [15]; settings: ref Cadelis et al. [15], cited from earlier work; for IC50: read-out: Cytotoxicity: concentration of compound at 50% cytotoxicity (IC50)
[2] = tested on: Escherichia coli (ATCC 25922); design: method as in Cadelis et al. [15]; settings: E. coli ATCC 25922; ref Cadelis et al. [15]; cited from earlier work
[3] = tested on: Staphylococcus aureus (ATCC 25923); design: method as in Cadelis et al. [15]; settings: S. aureus ATCC 25923; ref Cadelis et al. [15]; cited from earlier work
P. aeruginosa ATCC 27853 [4] = tested on: P. aeruginosa ATCC 27853; design: method as in Cadelis et al. [15]; settings: doxycycline at 4.5 µM, ref Cadelis et al. [15], cited from earlier work; for Dox/P. a fold change (ratio between intrinsic MIC of the test compound and combination MIC): P. aeruginosa ATCC 27853; for Dox/P. a: concentration required to restore doxycycline activity (combination MIC): P. aeruginosa
MRSA (ATCC 43300) [5] = settings: ref Cadelis et al. [15]; cited from earlier work
human red blood cells [6] = tested on: human red blood cells; design: method as in Cadelis et al. [15]; settings: ref Cadelis et al. [15], cited from earlier work
[7] = tested on: Klebsiella pneumoniae (ATCC 700603); design: method as in Cadelis et al. [15]; settings: K. pneumoniae ATCC 700603; ref Cadelis et al. [15]; cited from earlier work
[8] = tested on: Candida albicans (ATCC 90028); design: method as in Cadelis et al. [15]; settings: C. albicans ATCC 90028; ref Cadelis et al. [15]; cited from earlier work
[9] = tested on: Cryptococcus neoformans (ATCC 208821); design: method as in Cadelis et al. [15]; settings: C. neoformans ATCC 208821; ref Cadelis et al. [15]; cited from earlier work
[10] = tested on: Acinetobacter baumannii (ATCC 19606); design: method as in Cadelis et al. [15]; settings: A. baumannii ATCC 19606; ref Cadelis et al. [15]; cited from earlier work
[11] = tested on: Pseudomonas aeruginosa (ATCC 27853); design: method as in Cadelis et al. [15]; settings: P. aeruginosa ATCC 27853; ref Cadelis et al. [15]; cited from earlier work
K. pneumoniae = tested on: K. pneumoniae; design: method as in PMID 33090655; settings: ref [15]; cited from earlier work
E. coli = tested on: E. coli; design: method as in PMID 33090655; settings: ref [15]; cited from earlier work
MRSA (ATCC 43300) [12] = test: Intrinsic antimicrobial activity (MIC) against MRSA; assay type: cell-based; settings: Staphylococcus aureus, MRSA ATCC 43300; mean (n = 2); read-out: MIC MRSA
Summary of the method: (§1)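 Susceptibility testing: bacteria per earlier published methods; fungi per CO-ADD standard protocols (University of Queensland).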

human red blood cells [13] = test: Hemolytic assay; assay type: cell-based; settings: mean (n = 2)
Protocol: Hemolysis assays were conducted using the protocols previously reported.

MRSA (CF-Marseille) = test: Real time growth inhibition curves, microdilution MIC and MBC, MRSA (CF-Marseille); assay type: cell-based, Staphylococcus aureus
Source text: (§2) We next assessed the kinetics of antibacterial activity of 15c towards the Gram-positive bacteria S. aureus ATCC 25923 and MRSA (CF-Marseille) by measuring real time growth inhibition curves.

P. aeruginosa ATCC 27853 [14] = test: Enhancement of doxycycline action against P. aeruginosa; assay type: cell-based, Pseudomonas aeruginosa; settings: doxycycline at 4.5 µM
Protocol: (§3) Antibiotic enhancer concentrations were determined using previously reported protocols.

Cytotoxicity assay = assay type: cell-based; settings: human; HEK293 cells; mean (n = 2); read-out: Cytotoxicity: concentration of compound at 50% cytotoxicity (IC50)
Protocol: Cytotoxicity assays were conducted using the protocols previously reported.

[15] = tested on: Candida albicans (ATCC 90028); test: Intrinsic antifungal activity (MIC) against C. albicans; assay type: cell-based; settings: ATCC90028, C. albicans ATCC 90028, mean (n = 2), read-out: MIC C. a
Summary of the method: as §1

[16] = tested on: Pseudomonas aeruginosa (ATCC 27853); test: Intrinsic antimicrobial activity (MIC) against P. aeruginosa; assay type: cell-based; settings: ATCC27853, P. aeruginosa ATCC 27853, mean (n = 3), read-out: MIC P. a
Summary of the method: (§4)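 Bacterial susceptibility was determined following previously reported protocols. The antifungal evaluations were carried out at the Community for Open Antimicrobial Drug Discovery (University of Queensland, Australia) under its standard protocols.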

[17] = tested on: Acinetobacter baumannii (ATCC 19606); test: Intrinsic antimicrobial activity (MIC) against A. baumannii; assay type: cell-based; settings: ATCC19606, A. baumannii ATCC 19606, mean (n = 2), read-out: MIC A. b
[18] = tested on: Staphylococcus aureus (ATCC 25923); test: Intrinsic antimicrobial activity (MIC) against S. aureus; assay type: cell-based; settings: ATCC25923, S. aureus ATCC 25923, mean (n = 3), read-out: MIC S. a
Summary of the method: as §4

[19] = tested on: Cryptococcus neoformans (ATCC 208821); test: Intrinsic antifungal activity (MIC) against C. neoformans; assay type: cell-based; settings: ATCC208821, C. neoformans ATCC 208821, mean (n = 2), read-out: MIC C. n
Summary of the method: as §1

[20] = tested on: Escherichia coli (ATCC 25922); test: Intrinsic antimicrobial activity (MIC) against E. coli; assay type: cell-based; settings: ATCC25922, E. coli ATCC 25922, mean (n = 3), read-out: MIC E. c
Summary of the method: as §4

E. coli ATCC 25922 = test: Enhancement of erythromycin action against E. coli; assay type: cell-based, Escherichia coli; settings: erythromycin at 10.9 µM
Protocol: as §3

[21] = tested on: Klebsiella pneumoniae (ATCC 700603); test: Intrinsic antimicrobial activity (MIC) against K. pneumoniae; assay type: cell-based; settings: ATCC700603, K. pneumoniae ATCC 700603, mean (n = 2), read-out: MIC K. p
S. aureus ATCC 25923 = test: Real time growth inhibition curves, microdilution MIC and MBC, S. aureus; assay type: cell-based, Staphylococcus aureus
Source text: as §2

[22] = lowest tested concentration 6.4 μM

## O=C(Cc1c[nH]c2ccccc12)NCCCNCCCCNCCCNC(=O)Cc1c[nH]c2ccccc12 [Compound 14a]
[1]
  IC50: > 43 µM
[2]
  MIC E. c: >200 ^j µM
[3]
  MIC S. a: 200 µM (≈ 103 µg/mL)
P. aeruginosa ATCC 27853 [4]
  Dox/P. a fold change (ratio between intrinsic MIC of the test compound and combination MIC): > 4 fold
  Dox/P. a: concentration required to restore doxycycline activity (combination MIC): 50 µM
MRSA (ATCC 43300) [5]
  MIC MRSA: >62 µM
Human red blood cells [6]
  Hemolysis: concentration of compound at 10% hemolytic activity (HC10): >43 µM
[7]
  MIC K. p: >62 µM
[8]
  MIC C. a: >62 µM
[9]
  MIC C. n: >62 µM
[10]
  MIC A. b: >62 µM
[11]
  MIC P. a: >200 µM

## O=C(Cc1c[nH]c2ccc(Br)cc12)NCCCNCCCCNCCCNC(=O)Cc1c[nH]c2ccc(Br)cc12 [Compound 15a]
[1]
  IC50: > 35 µM
  Cytotoxicity: concentration of compound at 50% cytotoxicity (IC50): negligible
[2]
  MIC E. c: 200 µM (≈ 135 µg/mL)
[3]
  MIC S. a: 25 µM (≈ 16.9 µg/mL)
P. aeruginosa ATCC 27853 [4]
  Dox/P. a fold change (ratio between intrinsic MIC of the test compound and combination MIC): 32 fold
  Dox/P. a: concentration required to restore doxycycline activity (combination MIC): 6.25 µM
K. pneumoniae
  enhancement of the antibiotic action of doxycycline (MIC): 6.25 µM
MRSA (ATCC 43300) [5]
  MIC MRSA: 47.4 µM (≈ 32 µg/mL)
Human red blood cells [6]; listed as 5
  Hemolysis: concentration of compound at 10% hemolytic activity (HC10): negligible
Human red blood cells [6]
  Hemolysis: concentration of compound at 10% hemolytic activity (HC10): >35 µM
E. coli
  enhancement of the antibiotic action of doxycycline (MIC): 3.125 µM
[7]
  MIC K. p: >48 µM
[8]
  MIC C. a: >48 µM
[9]
  MIC C. n: 11.9 µM (≈ 8.03 µg/mL)
[10]
  MIC A. b: >48 µM
[11]
  MIC P. a: 200 µM (≈ 135 µg/mL)

## O=C(Cc1c[nH]c2ccc(Br)cc12)NCCCNCCCCCCCNCCCNC(=O)Cc1c[nH]c2ccc(Br)cc12.O=C(O)C(F)(F)F.O=C(O)C(F)(F)F [Compound 15c, N^1,N^7-Bis(3-(2-(5-bromo-1H-indol-3-yl)acetamido)propyl)heptane-1,7-diaminium 2,2,2-trifluoroacetate]
MRSA (ATCC 43300) [12]
  MIC: ≤ 0.26 µM
Human red blood cells [13]
  Hemolysis: concentration of compound at 10% hemolytic activity (HC10): >34 µM
MRSA (CF-Marseille)
  mode of antibacterial action (MBC versus MIC): bactericidal
MRSA (CF-Marseille); Staphylococcus aureus, matches real time growth curve at 18 h, read-out: MIC (classical microdilution methodology)
  MIC: 12.7 µM
MRSA (CF-Marseille); Staphylococcus aureus, read-out: minimum bactericidal concentration (MBC)
  MBC: 12.7 µM
MRSA (CF-Marseille); at 25.4 μM and 12.7 μM
  real time growth inhibition: completely inhibited
MRSA (CF-Marseille); [22]
  time after which bacterial growth was detected: > 4 h
P. aeruginosa ATCC 27853 [14]
  Dox/P. a: concentration required to restore doxycycline activity (combination MIC): 6.62 µM
Cytotoxicity assay
  IC50: > 34 µM
[15]
  MIC: ≤ 0.26 µM
[16]
  MIC: 106 µM
[17]
  MIC: > 34 µM
[18]
  MIC: 12.7 µM
[19]
  MIC: ≤ 0.26 µM
[20]
  MIC: 13.2 µM
E. coli ATCC 25922
  Eryth/E. c: concentration required to restore erythromycin activity (combination MIC): 6.62 µM
[21]
  MIC: > 34 µM
S. aureus ATCC 25923
  mode of antibacterial action (MBC versus MIC): bactericidal
S. aureus ATCC 25923; Staphylococcus aureus, ATCC25923, matches real time growth curve at 18 h, read-out: MIC (classical microdilution methodology)
  MIC: 12.7 µM
S. aureus ATCC 25923; Staphylococcus aureus, ATCC25923, read-out: minimum bactericidal concentration (MBC)
  MBC: 12.7 µM
S. aureus ATCC 25923; at 25.4 μM and 12.7 μM
  real time growth inhibition: completely inhibited
S. aureus ATCC 25923; [22]
  time after which bacterial growth was detected: > 4 h

## COc1ccc2[nH]cc(CC(=O)NCCCNCCCCNCCCNC(=O)Cc3c[nH]c4ccc(OC)cc34)c2c1 [Compound 16a]
[1]
  IC50: > 40 µM
[2]
  MIC E. c: >200 µM
[3]
  MIC S. a: 200 µM (≈ 115 µg/mL)
P. aeruginosa ATCC 27853 [4]
  Dox/P. a fold change (ratio between intrinsic MIC of the test compound and combination MIC): > 1 fold
  Dox/P. a: concentration required to restore doxycycline activity (combination MIC): 200 µM
MRSA (ATCC 43300) [5]
  MIC MRSA: >55 µM
Human red blood cells [6]
  Hemolysis: concentration of compound at 10% hemolytic activity (HC10): >40 µM
[7]
  MIC K. p: >55 µM
[8]
  MIC C. a: >55 µM
[9]
  MIC C. n: >55 µM
[10]
  MIC A. b: >55 µM
[11]
  MIC P. a: >200 µM
